Measured values published in patent US7759101B2, “Ginsenoside glycosidases hydrolyzing ginsenoside sugar moieties and uses thereof” (priority 2000, dated 2010).

Legend:
[1] = system: ginsenoside glycosidase I; test: Hydrolysis of ginsenosides with Fraction 36 (ginsenoside glycosidase I); type: biochemical, Aspergillus niger; details: Fraction 36; substrates Rb1, Rb2, Rc, Rd 0.5%; Rg3, F2, Rh2, C—K, Rg2 0.05%; pH 5.0, 30° C.
Procedure: 10 ml of the enzyme solution obtained in 1.1 was subjected to a DEAE-Cellulose DE-52 column (Pharamcia, 1.5×6.7 cm) to absorb the enzyme protein. The column was then eluted with a NaCl gradient (0.06, 0.12, 0.18, 0.24, 0.3, 0.4, 0.5 and 0.6M).
Fractions 36 and 54 from the DEAE-Cellulose column appeared as one dot on a SDS-polyacrylamide gel, representing the purified enzymes.
Fraction 36 which was eluted with 0.12 M NaCl from the DEAE-Cellulose column was lyophilized and appeared as a single dot with a molecular weight of 51,000 Daltons when running on a SDS-polyacrylamide gel.
To observe the differences between the ginsenoside glycosidases of the invention and known exo-cellulases, the ginsenoside glycosidases of the invention were compared with cellulose β-glucosidase (E.C. 3.2.1.21) in two reactions with 0.5% ginsenosides Rb1 or Rd as substrate.

[2] = system: ginsenoside glycosidases from wheat bran; test: Hydrolysis of ginsenosides with ginsenoside glycosidases from wheat bran; type: biochemical; details: for effect of metal ion on the enzyme activity: enzymes from wheat bran
Procedure: 500 g of wheat bran was added to 2500 ml of 0.02 M acetate buffer pH 5 and extracted at 40° C. for 2 hours. 2000 ml of supernatant were obtained by filtration to which (NH4)2SO4 was added gradually with stirring until 70% saturation. The mixture stand at 4° C. overnight. Protein pellets were collected by centrifugation and redissolved in 80 ml of distilled water and dialyzed against 0.02 M acetate buffer pH 5.0. Insolubles were removed by centrifugation and the supernatant was adjusted to a volume of 200 ml to obtain the crude enzyme solution.
10 ml of the enzyme solution was allowed to react with 10 ml of 1% ginsenoside substrate at 40° C. for 20 hours.

[3] = system: ginsenoside glycosidases from A. niger; test: Hydrolysis of ginsenosides with crude ginsenoside glycosidases from A. niger, products measured by TLC; type: biochemical, Aspergillus niger; details: for effect of metal ions on the enzyme reaction: hydrolysis of Rb1, pH 5.0, 30°C.
Procedure: Aspergillus niger FFCCDL-48 g was cultured in a medium containing 1% ginseng extracts and 3% wheat bran extracts at 30° C. for 54 hours. Cells were removed by centrifugation, after which (NH4)2SO4 powder was added to 2000 ml of the cell-free supernatant with stirring to 65% saturation. The solution was stored overnight at 4° C. and precipitated proteins were collected by centrifugation, resuspended in 80 ml of distilled water and dialyzed against 0.01M acetate buffer pH 5. Insolubles were removed by centrifugation, and the solution was adjusted to 200 ml with 0.01 M acetate buffer pH 5. The crude enzyme solution may be used to hydrolyze ginsenosides or to purify the enzymes.
100 mg each of ginsenosides Rb1, Rb2, Rc and Rd and 10 mg of ginsenoside Rg3 were dissolved in separate tubes containing 10 ml of 0.01M acetate buffer pH 5. 10 ml of the crude enzyme solution obtained in 1.1 was added to each tube and allowed to react at 30° C. for 18 hours. Then 10 ml of n-butanol was added to stop the reactions. The products were measured by thin layer chromatography (TLC) (Silica gel 60-F254, Merck; chloroform:methanol:water 70:30:5).
Experiments were carried out to explore the effects of temperature, pH, metal ions and reaction time on the enzyme reaction, in order to further characterize the enzymes.
100 mg of ginsenoside Rb1 was used in a reaction under the conditions as described in 1.2 and the effect of temperature was shown in Table 2.

[4] = system: ginsenoside glycosidase I from ginseng plants; test: Hydrolysis of ginsenosides with fraction 52 (ginsenoside glycosidase I) from ginseng plant; type: biochemical; details: Fraction 52; substrate 0.5%; 50° C., pH 5.0, 18 hours
Procedure: 200 g of fresh ginseng root was cut into pieces and added to 600 ml of 0.02 M acetate buffer pH 5. Supernatant was obtained by filtration after the mixture stand at 40° C. for 2 hours. To the supernatant (NH4)2SO4 was added gradually until 70% saturation and the mixture stand overnight at 4° C. Then protein pellets were collected by centrifugation and redissolved in 15 ml of distilled water. The solution was dialyzed against 0.02 M Tris-HCl pH 7.4. Insolubles were removed by centrifugation and the volume of the supernatant was adjusted to 20 ml.
5 ml of the enzyme solution was subjected to a DEAE-Cellulose DE-25 column (Whatman, 1.4×6.7 cm). The column was eluted with a KCl gradient (0.06, 0.12, 0.18 and 0.24 M) in 0.02 M Tris-HCl pH 7.4. After elution, each fraction was tested for the activity of hydrolyzing ginsenosides. […] Fraction 52 can also hydrolyze the glucosidic bond at the twentieth carbon atom of Rb and Rc to give ginsenoside F2.

[5] = system: ginsenoside glycosidases from A. oryzae; test: Hydrolysis of ginsenosides with crude ginsenoside glycosidases from A. oryzae, TLC; type: biochemical, Aspergillus oryzae; details: pH 5.0, 30° C., 18 hours
Procedure: Aspergillus oryzae FFCCDL-39 g (available from Food Fermentation Culture Collection of Dalian Institute of Light Industry) was cultured with stirring in a medium containing 1% ginseng extracts and 3% wheat bran extracts at 30° C. for 64 hours. Cells were removed by centrifugation, after which (NH4)2SO4 powder was added to 2000 ml of the cell-free supernatant with stirring to 65% saturation. The solution was stored overnight at 4° C. and precipitated proteins were collected by centrifugation, resuspended in 80 ml of distilled water and dialyzed against 0.01M acetate buffer pH 5. Insolubles were removed by centrifugation, and the solution was adjusted to 200 ml with 0.01 M acetate buffer pH 5. The crude enzyme solution may be used to hydrolyze ginsenosides or to purify the enzymes.
Each 100 mg of ginsenosides Rb1, Rb2, Rc Re and Rd and each 10 mg of ginsenoside Rg3 and Rg2 were dissolved in separate tubes containing 10 ml of 0.01M acetate buffer pH 5. 10 ml of the crude enzyme solution obtained as above was added to each tube and allowed to react at 30° C. for 18 hours. Then 10 ml of n-butanol was added to stop the reactions. The products were measured by thin layer chromatography (TLC) (Silica gel 60-F254, Merck; chloroform:methanol:water 70:30:5). […]

[6] = 10 ml of 1% ginsenoside substrate, 40° C., 20 hours

In the case of CC(C)=CCC[C@](C)(O[C@@H]1O[C@H](CO)[C@@H](O)[C@H](O)[C@H]1O)[C@H]1CC[C@]2(C)[C@@H]1[C@H](O)C[C@@H]1[C@@]3(C)CC[C@H](O)C(C)(C)[C@@H]3CC[C@]12C [C—K, ginsenoside C-K], the “Percentage of C—K in the reaction product” value (“Percentage of C—K” below) [1] is reported as 97% and the “Percentage of aglycone in the reaction product” value (shortened to “Percentage of aglycone”) [1] is reported as 3%.
For CC(C)=CCC[C@](C)(O[C@@H]1O[C@H](CO)[C@@H](O)[C@H](O)[C@H]1O)[C@H]1CC[C@]2(C)[C@@H]1[C@H](O)C[C@@H]1[C@@]3(C)CC[C@H](O[C@@H]4O[C@H](CO)[C@@H](O)[C@H](O)[C@H]4O)C(C)(C)[C@@H]3CC[C@]12C [F2, ginsenoside F2], the “Percentage of C—K” value [1] was 62%, the “Percentage of F2 in the reaction product” value [1] was 30% and the “Percentage of Rh2 in the reaction product” value (“Percentage of Rh2” below) [1] was 3%. The “Percentage of aglycone” value [1] was 5%.
For [Fe+2] [Fe^++], the “effect of metal ion on the enzyme activity” value [2] was “enhance the enzyme activity”.
[Mg+2] [Mg^++] was tested, and the “effect of metal ion on the enzyme activity” value [2] was “enhance the enzyme activity” and the “effect of metal ions on the enzyme reaction” value [3] was “slightly accelerate the conversion rate”.
[Pb+2] [Pb^++] was tested, and the “effect of metal ions on the enzyme reaction” value [3] was “inhibit the reaction”.
CC(C)=CCC[C@](C)(O[C@@H]1O[C@H](CO[C@@H]2OC[C@H](O)[C@H](O)[C@H]2O)[C@@H](O)[C@H](O)[C@H]1O)[C@H]1CC[C@]2(C)[C@@H]1[C@H](O)C[C@@H]1[C@@]3(C)CC[C@H](O[C@@H]4O[C@H](CO)[C@@H](O)[C@H](O)[C@H]4O[C@@H]4O[C@H](CO)[C@@H](O)[C@H](O)[C@H]4O)C(C)(C)[C@@H]3CC[C@]12C [Rb2, ginsenoside Rb2] was tested, and the “Percentage of C—K” value [1] was 54%, the “Percentage of F2 in the reaction product” value [1] was 35% and the “Percentage of Rd in the reaction product” value [1] was 9%. The “Percentage of Rh2” value [1] was 1%, the “Percentage of aglycone” value [1] was 1% and the “Percentage of F2 in the reaction product” value [4] was 65%. The “Percentage of Rd in the reaction product” value [4] was 35%, the “Percentage of F2 in the reaction product” value [2, 6] was 50% and the “Percentage of Rd in the reaction product” value [2, 6] was 45%. For the same molecule, the “Percentage of C—K” value ([3]; pH 5, 30° C., 18 hours) was 17%, the “Percentage of F2 in the reaction product” value ([3]; pH 5, 30° C., 18 hours) was 57% and the “Percentage of Rb2 in the reaction product” value ([3]; pH 5, 30° C., 18 hours) was 7%. For the same molecule, the “Percentage of Rd in the reaction product” value ([3]; pH 5, 30° C., 18 hours) was 13%, the “Percentage of Rh2” value ([3]; pH 5, 30° C., 18 hours) was 3% and the “Percentage of aglycone” value ([3]; pH 5, 30° C., 18 hours) was 3%. For the same molecule, the “Percentage of C—K” value [5] was 54%, the “Percentage of F2 in the reaction product” value [5] was 35% and the “Percentage of Rd in the reaction product” value [5] was 18%. For the same molecule, the “Percentage of aglycone” value [5] was 3%.
With CC(C)=CCC[C@](C)(O[C@@H]1O[C@H](CO)[C@@H](O)[C@H](O)[C@H]1O)[C@H]1CC[C@]2(C)[C@@H]1[C@H](O)C[C@@H]1[C@@]3(C)CC[C@H](O)C(C)(C)[C@@H]3[C@@H](O[C@@H]3O[C@H](CO)[C@@H](O)[C@H](O)[C@H]3O[C@@H]3O[C@@H](C)[C@H](O)[C@@H](O)[C@H]3O)C[C@]12C [Re, ginsenoside Re] the “Percentage of Re in the reaction product” value [5] was 20%, the “Percentage of Rg1 in the reaction product” value [5] was 73% and the “Percentage of Rh1 in the reaction product” value [5] was 2%. The “Percentage of aglycone” value [5] was 5%.
For CC(C)=CCC[C@](C)(O)[C@H]1CC[C@]2(C)[C@@H]1[C@H](O)C[C@@H]1[C@@]3(C)CC[C@H](O)C(C)(C)[C@@H]3[C@@H](O[C@@H]3O[C@H](CO)[C@@H](O)[C@H](O)[C@H]3O[C@@H]3O[C@@H](C)[C@H](O)[C@@H](O)[C@H]3O)C[C@]12C [Rg2, ginsenoside Rg2], the “Percentage of Rg2 in the reaction product” value [1] was 100%, the “Percentage of Rg2 in the reaction product” value [5] was 32% and the “Percentage of Rh1 in the reaction product” value [5] was 75%. The “Percentage of aglycone” value [5] was 3%.
In the case of CC(C)=CCC[C@](C)(O)[C@H]1CC[C@]2(C)[C@@H]1[C@H](O)C[C@@H]1[C@@]3(C)CC[C@H](O[C@@H]4O[C@H](CO)[C@@H](O)[C@H](O)[C@H]4O[C@@H]4O[C@H](CO)[C@@H](O)[C@H](O)[C@H]4O)C(C)(C)[C@@H]3CC[C@]12C [Rg3, ginsenoside Rg3], the “Percentage of Rg3 in the reaction product” value (“Percentage of Rg3” for short) [1] is reported as 40%, the “Percentage of Rh2” value [1] is reported as 57% and the “Percentage of aglycone” value [1] is reported as 3%. For the same molecule, the “Percentage of Rg3” value ([3]; pH 5, 30° C., 18 hours) was 30%, the “Percentage of Rh2” value ([3]; pH 5, 30° C., 18 hours) was 53% and the “Percentage of aglycone” value ([3]; pH 5, 30° C., 18 hours) was 17%. For the same molecule, the “conversion rate from Rg3 to Rh2” value ([3]; pH 5, 30° C., 18 hours) was “over 50%”, the “Percentage of Rg3” value [5] was 45% and the “Percentage of Rh2” value [5] was 50%. The “Percentage of aglycone” value [5] was 5%.
With CC(C)=CCC[C@](C)(O)[C@H]1CC[C@]2(C)[C@@H]1[C@H](O)C[C@@H]1[C@@]3(C)CC[C@H](O[C@@H]4O[C@H](CO)[C@@H](O)[C@H](O)[C@H]4O)C(C)(C)[C@@H]3CC[C@]12C [Rh2, ginsenoside Rh2] the “Percentage of Rh2” value [1] was 89% and the “Percentage of aglycone” value [1] was 10%.
